Measured values as given in patent US9101671B2, “Methods and compositions related to clot binding compounds” (Sanford-Burnham Medical Research Institute, priority 2007, dated 2015).
Where no end group is shown, it is not given here. fluorescent dye = not defined here

Assays:
B16F1 melanomas = experiment: CREKA peptide homing to B16F1 melanomas in fibrinogen null mice and normal littermates; assay type: in vivo; settings: intravenous injection
Procedure: Fluorescein-conjugated CREKA peptide (200 μg per mouse) was injected into mice bearing syngeneic B16 melanoma tumors. Representative microscopic fields are shown to illustrate homing of fluorescein-CREKA to fibrin-like structures in tumors in wild type mice (A, arrow) and lack of homing in fibrinogen null mice (B). […] (D) Dextran-coated iron oxide nanoparticles conjugated with fluorescein-CREKA bind to clotted plasma proteins, and the binding is inhibited by free CREKA peptide. […] Magnification: A-B, 200×; D, 600×.
Tumors contain a meshwork of clotted plasma proteins in the tumor stroma and the walls of vessels, but no such meshwork is detectable in normal tissues (Dvorak 1985; Abe 1999; Pilch 2006). The mesh-like pattern produced by the CREKA peptide in tumors prompted the study of whether clotted plasma proteins can be the target of this peptide. The peptide was tested in fibrinogen knockout mice, which lack the fibrin meshwork in their tumors. […] Its structure makes it an attractive peptide to use in nanoparticle targeting because, unlike other clot-binding peptides, which are cyclic 10 amino-acid peptides (Pilch 2006), CREKA is linear and contains only 5 amino acids. Moreover, the sulfhydryl group of the single cysteine residue is not required to provide binding activity and can be used to couple the peptide to other moieties. […]

[1] = test system: MDA-MB-435 human breast cancer xenografts; experiment: Tumor homing of intravenously injected fluorescent CREKA peptide in MDA-MB-435 xenograft mice; assay type: in vivo
Procedure: (§1) (A). Balb/c nude mice bearing MDA-MB-435 human breast cancer xenograft tumors or transgenic MMTV PyMT mice with breast tumors were intravenously injected with 0.1 mg of fluorescein-CREKA. The animals were sacrificed by perfusion 24 hours post-injection and tissue sections were examined by fluorescent microscopy. Right panel, control organs of MDA-MB 435 tumor mice. Magnification 200×. (B). Whole animal imaging of MDA-MB-435 tumor mouse injected 6 hours earlier with 30 μg of Alexa Fluor 647-labeled CREKA. Maestro imaging system (Cambridge Research Inc., Woburn, Mass.) was used to acquire and process the image. The arrow points to the tumor and the arrowhead to the urinary bladder.
(§2) A tumor-homing peptide was used to construct targeted nanoparticles. […] The most frequently represented peptide sequence in the selected phage preparation was CREKA (cys-arg-glu-lys-ala; SEQ ID NO:1). The CREKA peptide was synthesized with a fluorescent dye attached to the N-terminus and the in vivo distribution of the peptide was studied in tumor-bearing mice. […] The peptide formed a distinct meshwork in the tumor stroma (FIG. 5), and it also highlighted the blood vessels in the tumors.
In vivo screening of a peptide library with the general structure of CX7C (SEQ ID NO: 4), where C is cysteine and X is any amino acid, was carried out as described (Oh 2004) using 65- to 75-day-old transgenic MMTV PyMT mice (Hutchinson 2000). These mice express the polyoma virus middle T antigen (MT) under the transcriptional control of the mouse mammary tumor virus (MMTV), leading to the induction of multi-focal mammary tumors in 100% of carriers. MDA-MB-435 tumors in nude mice and peptide synthesis have been described (Laakkonen 2002; Laakkonen 2004). B16F1 murine melanoma tumors were grown in fibrinogen null mice (Suh 1995) and their normal littermates and used when they reached 0.5-1 cm in size (Pilch 2006).

mouse plasma clots = experiment: Nanoparticle binding to mouse plasma clots in vitro
Procedure: (§3) Phage binding to clotted plasma proteins was determined as described (Pilch 2006). CREKA-SPIO and control SPIO were added to freshly formed plasma clots in the presence or absence of free CREKA peptide. After 10 min incubation, the clots were washed 4 times in PBS, transferred to a new tube and digested in 100 μl concentrated nitric acid. The digested material was diluted in 2 ml distilled water and the iron concentration was determined using inductively coupled plasma-optical emission spectroscopy (ICP-OES, PerkinElmer, Norwalk, Conn.).

human plasma clots = experiment: Nanoparticle binding to human plasma clots in vitro
Procedure: as §3

PyMT tumors = experiment: Tumor homing of intravenously injected fluorescent CREKA peptide in MMTV-PyMT mice; assay type: in vivo; settings: intravenous injection; minutes to hours after the injection; fluorescent dye at N-terminus
Procedure: as §1
as §2, with “tumors. […]” for “tumors.”

cys-arg-glu-lys-ala ({fluorescent dye}-CREKA; reading uncertain; also: dye not identified, printed as cys-arg-glu-lys-ala) [CREKA peptide, studied in vivo with a fluorescent dye attached to the N-terminus]
peptide accumulation in tumors (B16F1 melanomas; fibrinogen null mice): failed to accumulate | peptide accumulation in tumors (B16F1 melanomas; normal littermates of the null mice): formed a brightly fluorescent meshwork | peptide detection in tumors ([1]; intravenous injection, minutes to hours after the injection, fluorescent dye at N-terminus): readily detectable | peptide detection in normal tissues ([1]; intravenous injection, tumor-bearing mice): essentially undetectable | whole body imaging, peptide accumulation ([1]; peptide labeled with Alexa 647, 6 hours after injection of 30 μg): peptide accumulation in the breast cancer xenografts, and in the bladder | effect of free peptide on CREKA-SPIO binding to plasma clots (mouse plasma clots): inhibited | effect of free peptide on CREKA-SPIO binding to plasma clots (human plasma clots): inhibited | peptide detection in tumors (PyMT tumors): readily detectable
